Data taken from ChEMBL document CHEMBL4411344, “Synthesis and biological evaluation of new long-chain squaramides as anti-chagasic agents in the BALB/c mouse model” (Bioorg Med Chem, 2019).

Key:
Trypanosoma cruzi [1] = assay: Trypanocidal activity against Trypanosoma cruzi IRHOD/CO/2008/SN3 DTU 1 epimastigotes after 72 hrs by resazurin dye based assay; type: functional, organism-based; settings: IRHOD/CO/2008/SN3 DTU 1, 72 h
Trypanosoma cruzi [2] = assay: Trypanocidal activity against Trypanosoma cruzi MHOM/Pe/2011/Arequipa DTU 5 trypomastigotes derived from infected Balb/c mouse after 72 hrs by resazurin dye based assay; type: functional, organism-based; settings: MHOM/Pe/2011/Arequipa DTU 5, 72 h
Trypanosoma cruzi [3] = assay: Trypanocidal activity against Trypanosoma cruzi MHOM/Pe/2011/Arequipa DTU 5 amastigotes infected in African green monkey Vero cells after 72 hrs by Giemsa-staining based microscopic assay; type: functional, organism-based; settings: MHOM/Pe/2011/Arequipa DTU 5, Vero
[4] = Selectivity index, ratio of IC50 for African green monkey Vero cells to IC50 for Trypanosoma cruzi IRHOD/CO/2008/SN3 DTU 1 epimastigotes; type: toxicity; settings: read-out: Ratio IC50
[5] = Selectivity index, ratio of IC50 for African green monkey Vero cells to IC50 for Trypanosoma cruzi TINF/CH/1956/Tulahuen DTU 6 amastigotes infected in African green monkey Vero cells; type: toxicity; settings: read-out: Ratio IC50
[6] = Selectivity index, ratio of IC50 for African green monkey Vero cells to IC50 for Trypanosoma cruzi MHOM/Pe/2011/Arequipa DTU 5 trypomastigotes derived from infected Balb/c mouse; type: toxicity; settings: read-out: Ratio IC50
Trypanosoma cruzi [7] = assay: Trypanocidal activity against Trypanosoma cruzi TINF/CH/1956/Tulahuen DTU 6 epimastigotes after 72 hrs by resazurin dye based assay; type: functional, organism-based; settings: TINF/CH/1956/Tulahuen DTU 6, 72 h
Trypanosoma cruzi [8] = assay: Trypanocidal activity against Trypanosoma cruzi IRHOD/CO/2008/SN3 DTU 1 trypomastigotes derived from infected Balb/c mouse after 72 hrs by resazurin dye based assay; type: functional, organism-based; settings: IRHOD/CO/2008/SN3 DTU 1, 72 h
Trypanosoma cruzi [9] = assay: Trypanocidal activity against Trypanosoma cruzi TINF/CH/1956/Tulahuen DTU 6 trypomastigotes derived from infected Balb/c mouse after 72 hrs by resazurin dye based assay; type: functional, organism-based; settings: TINF/CH/1956/Tulahuen DTU 6, 72 h
[10] = Selectivity index, ratio of IC50 for African green monkey Vero cells to IC50 for Trypanosoma cruzi MHOM/Pe/2011/Arequipa DTU 5 epimastigotes; type: toxicity; settings: read-out: Ratio IC50
[11] = Selectivity index, ratio of IC50 for African green monkey Vero cells to IC50 for Trypanosoma cruzi IRHOD/CO/2008/SN3 DTU 1 trypomastigotes derived from infected Balb/c mouse; type: toxicity; settings: read-out: Ratio IC50
Trypanosoma cruzi [12] = assay: Trypanocidal activity against Trypanosoma cruzi TINF/CH/1956/Tulahuen DTU 6 amastigotes infected in African green monkey Vero cells after 72 hrs by Giemsa-staining based microscopic assay; type: functional, organism-based; settings: TINF/CH/1956/Tulahuen DTU 6, Vero
[13] = Selectivity index, ratio of IC50 for African green monkey Vero cells to IC50 for Trypanosoma cruzi TINF/CH/1956/Tulahuen DTU 6 epimastigotes; type: toxicity; settings: read-out: Ratio IC50
Vero = assay: Cytotoxicity against African green monkey Vero cells assessed as reduction in cell viability after 72 hrs by resazurin dye based assay; settings: Chlorocebus sabaeus
Trypanosoma cruzi [14] = assay: Trypanocidal activity against Trypanosoma cruzi IRHOD/CO/2008/SN3 DTU 1 amastigotes infected in African green monkey Vero cells after 72 hrs by Giemsa-staining based microscopic assay; type: functional, organism-based; settings: IRHOD/CO/2008/SN3 DTU 1, Vero
[15] = Selectivity index, ratio of IC50 for African green monkey Vero cells to IC50 for Trypanosoma cruzi IRHOD/CO/2008/SN3 DTU 1 amastigotes infected in African green monkey Vero cells; type: toxicity; settings: read-out: Ratio IC50
[16] = Selectivity index, ratio of IC50 for African green monkey Vero cells to IC50 for Trypanosoma cruzi TINF/CH/1956/Tulahuen DTU 6 trypomastigotes derived from infected Balb/c mouse; type: toxicity; settings: read-out: Ratio IC50
Trypanosoma cruzi [17] = assay: Trypanocidal activity against Trypanosoma cruzi MHOM/Pe/2011/Arequipa DTU 5 epimastigotes after 72 hrs by resazurin dye based assay; type: functional, organism-based; settings: MHOM/Pe/2011/Arequipa DTU 5, 72 h
[18] = Selectivity index, ratio of IC50 for African green monkey Vero cells to IC50 for Trypanosoma cruzi MHOM/Pe/2011/Arequipa DTU 5 amastigotes infected in African green monkey Vero cells; type: toxicity; settings: read-out: Ratio IC50

SMILES	IC50 (Trypanosoma cruzi [1]) [µM]	IC50 (Trypanosoma cruzi [2]) [µM]	IC50 (Trypanosoma cruzi [3]) [µM]	selectivity ratio [4]	selectivity ratio [5]	selectivity ratio [6]	IC50 (Trypanosoma cruzi [7]) [µM]	IC50 (Trypanosoma cruzi [8]) [µM]	IC50 (Trypanosoma cruzi [9]) [µM]	selectivity ratio [10]	selectivity ratio [11]	IC50 (Trypanosoma cruzi [12]) [µM]	selectivity ratio [13]	IC50 (Vero) [µM]	IC50 (Trypanosoma cruzi [14]) [µM]	selectivity ratio [15]	selectivity ratio [16]	IC50 (Trypanosoma cruzi [17]) [µM]	selectivity ratio [18]
CCNc1c(N(C)CCCN(C)C)c(=O)c1=O	41	29.1	27.8	22	28.5	30.9	27.8	28	26.6	21.8	32.1	31.6	32.4	900	54.5	16.5	33.8	41.3	32.3
CCCCCCCCCCCC[N+](C)(C)CCCN(C)c1c(OCC)c(=O)c1=O	74.5			4.7			89.1			5.6			4	353				63.3	
CN(C)CCCN(C)c1c(N(C)CCCN(C)C)c(=O)c1=O	404			2.8			360			10.6			3.2	1140				107	
CCCCCCCCCCCCCCCCOP(=O)([O-])OCC[N+](C)(C)C [MILTEFOSINE]	55.9	18.8	29.6	0.4	0.7	1.2	22.9	34.8	20.1	1	0.6	31.8	0.9	21.6	39.7	0.5	1.1	20.8	0.7
CCCCCCCCCCCCNc1c(N(C)CCCN(C)C)c(=O)c1=O	37.5			3.4			49.5			2			2.6	128				64.6	
CCCCCCCCCCCC[N+](C)(C)CCCN(C)c1c(O)c(=O)c1=O	33.1			4.8			66.1			7.2			2.4	160				22.1	
CN(C)CCCN(C)c1c(N)c(=O)c1=O	33.7	33.2	39.6	31.8	20.8	32.2	42.6	30.2	33.6	25.3	35.4	51.3	25.1	1070	62.6	17.1	31.8	42.3	27
CCCCCCCCCCCCOc1c(N(C)CCCN(C)C)c(=O)c1=O	19.4			15	11.4		14.6	24.1	19.1	8	12.1	25.5	19.9	291	28.4	10.3	15.3	36.2	
CCCCCCCCNc1c(N(C)CCCN(C)C)c(=O)c1=O	87.8			13.2			82			11.4			14.2	1150				102	
CN(C)CCCN(C)c1c(NCCCN(C)CCCNc2c(N(C)CCCN(C)C)c(=O)c2=O)c(=O)c1=O	311			7			241			12.2			9	2170				177	
CCCCNc1c(N(C)CCCN(C)C)c(=O)c1=O	15.2	10.4	14.7	28.9	37.5	42.2	9.1	7.5	8.9	35.4	58.6	11.7	48.3	439	13.1	33.5	49.3	12.4	29.9
